One test concerns the target human α-thrombin (Homo sapiens, UniProt P00734). Nature of the test: Determination of Ki: inhibition of human α-thrombin catalysed hydrolysis of chromogenic substrate S-2238. Type of test: biochemical. The method, then:
The inhibition of human α-thrombin was determined by the inhibition of the enzyme catalysed hydrolysis of three different concentrations of the chromogenic substrate S-2238.
200 μl of sample or buffer and 50 μl of S-2238 were incubated at 37° C. for 1 min and 50 μl of human α-thrombin (0.25 NIH μ/ml) was added. The initial rate of inhibited and uninhibited reactions were recorded at […]. The increase in optical density was plotted according to the method of Lineweaver and Burke. The Km and apparent Km were determined and Ki was calculated using the relationship. [formula]
The buffer used contained 0.1M sodium phosphate, 0.2M NaCl, 0.5% PEG and 0.02% sodium azide, adjusted to pH 7.5 with orthophosphoric acid.
The samples consist of the compound dissolved in DMSO.
The reader is referred to Dixon, M and Webb, E. C., "Enzymes", third edition, 1979, Academic Press, the disclosure of which is incorporated herein by reference, for a further description of the measurement of Ki.

Another test concerns the target elastase. Nature of the test: Inhibition constant (Ki) against elastase. Type of test: biochemical.
[1] abbreviates: Table 4, 37° C., substrate S-2238.
Where [2] appears, read: Table 5, Ki against elastase, 37° C., read-out: Ela.
The mark [3] stands for this setting: Table 6, comparative with prior art compounds, unit inferred, read-out: Ki(elastase).
The mark [4] stands for this setting: Table 6, comparative with prior art compounds, unit inferred.

Read-outs that look alike come from different tables or passages of the source.

As to `CCOP(=O)(OCC)C(OC(=O)C1CCCN1C(=O)C(NC(=O)OCc1ccccc1)C(c1ccccc1)c1ccccc1)c1ccc([N+](=O)[O-])cc1` (racemic) [Example 239, Cbz-DL-Dpa-Pro-CO2 pNO2Phg^P (OEt)2], the Ki at human α-thrombin (setting [1]) was determined as 6200 nM.

`CCOP(=O)(OCC)C(OC(=O)[C@@H]1CCCN1C(=O)C(NC(=O)OCc1ccccc1)C(c1ccccc1)c1ccccc1)c1ccccc1` (mixture of isomers) [Example 264, Cbz-DL-Dpa-Pro.psi.(CO2)Phg^P (OEt)2] returned a Ki on human α-thrombin (setting [1]) of 16000 nM. `CC(C)C(OC(=O)C1CCCN1C(=O)C(NC(=O)OCc1ccccc1)C(c1ccccc1)c1ccccc1)B1OC2CC3CC(C3(C)C)C2(C)O1` [Example 87, Benzyloxycarbonyl-D,L-diphenylalanylprolyl-.psi.(CO2)-borovaline pinanediol ester]: the Ki turned out to be 18200 nM at human α-thrombin (setting [1]) and 55000 nM on elastase (setting [2]).

As for `CCC(OC(=O)C1CCCN1C(=O)C(NC(=O)OCc1ccccc1)C(c1ccccc1)c1ccccc1)B1OC2CC3CC(C3(C)C)C2(C)O1` [Example 90, Cbz-D,L-Dpa-Pro-.psi.(CO2)-1-propyl-1-boronate pinanediol], the Ki on human α-thrombin (setting [1]) amounted to 247 nM; on elastase (setting [2]), 4500 nM. `CC1(C)C2CC3OB(C(Cc4ccccc4)OC(=O)C4CCCN4C(=O)[C@H](NC(=O)OCc4ccccc4)C(c4ccccc4)c4ccccc4)OC3(C)C1C2` (stereo partly drawn) [Example 91, Cbz-D-Dpa-Pro-.psi.(CO2)-boroPhe pinanediol]: the Ki at human α-thrombin (setting [1]) was found to be 39.2 nM. For the molecule `CC1(C)C2CC3OB(C(OC(=O)C4CCCN4C(=O)[C@@H](Cc4ccccc4)NC(=O)OCc4ccccc4)c4ccccc4)OC3(C)C1C2` (stereo partly drawn) [Example 100, Cbz-D-Phe-Pro-.psi.(CO2)-boroPgl pinanediol], on human α-thrombin (setting [1]), the Ki is 88 nM. The same measure, in the same setting: the same measure for `CC1(C)C2CC3OB(C(OC(=O)C4CCCN4C(=O)C(NC(=O)OCc4ccccc4)C(c4ccccc4)c4ccccc4)c4ccccc4)OC3(C)C1C2` [Example 101, Cbz-D,L-Dpa-Pro-.psi.(CO2)-BoroPgl pinanediol]: 131 nM. Consider `CC(C)C(NC(=O)C1CCCN1C(=O)C(NC(=O)OCc1ccccc1)C(c1ccccc1)c1ccccc1)B1OC(C)(C)C(C)(C)O1` [Z-D-Dpa-Pro-BoroVal-OPin, reference compound], for which the Ki at elastase (setting [3]) was more than 70800 nM. Turning to “Cbz-D,L-Dpa-Pro-(CO2)boroPhe-OPin [Example 89]”, the Ki on human α-thrombin (setting [1]) came out at 39 nM. “Cbz-D-Dpa-Pro-.psi.(CO2)-GlyP(-)OPin [Example 177]” registered a Ki at human α-thrombin (setting [1]) of 13700 nM.

“Cbz-D-Dpa-Pro-.psi.(COCH2)BoroHpg(-)OPin [Example 270]” came in with a Ki at human α-thrombin (setting [1]) of 292 nM. The molecule “Cbz-D-Phe-Pro-.psi.(CH2 O)-BoroPhe-OPin [Example 102]” returned a Ki on human α-thrombin (setting [1]) of 148 nM. Still for that read-out and setting: the same measure for “Cbz-D-Phe-Pro-.psi.(CO2)-BoroPhe-OPin [Example 88]”: 129 nM. “Cbz-D-Phe-Pro-.psi.(CO2)-boroethylglycine pinanediol [Example 85]”: the results for the Ki at human α-thrombin (setting [1]) and on elastase (setting [2]) were 269 nM and 87 nM, respectively.

Regarding “Z-D,L-Dpa-(CO2)BoroMpgOPin [Example 109]”, the Ki at human α-thrombin (setting [1]) turned out to be 435 nM. The molecule “Z-D,L-Dpa-Pro-BoroPhe-OPin [reference compound]” gave a Ki on human α-thrombin (setting [4]) of 82 nM. As to “Z-D-Dpa-Pro(CO2)-L-BoroMpgOPin [Example 116]”, the Ki at human α-thrombin (setting [1]) was 283 nM. On the same count and under the same terms, then “Z-D-Dpa-Pro-(CH2 O)-L-BoroMpg-OPin [Example 173]”, with 2390 nM. For the molecule “Z-D-Phe-ProBoroEtgOPin [reference compound]”, the results for the Ki at human α-thrombin (setting [4]) and at elastase (setting [3]) were 1000 nM and 561 nM, respectively.

These data come from patent US6127340A, “Serine protease inhibitors” (Trigen Limited, priority 1995, dated 2000).
